Experimental data: patent publication EP0414533A1, “Use of iodopropargyl esters of alpha-amino acid derivatives as antimicrobial agents” (ROHM AND HAAS COMPANY, priority 1989, dated 1991)
≈ marks a conversion by molar mass, not a printed value. Read-outs that look alike come from different tables or passages of the source.

Assays:
8 FUNGI = test: Microbicides secondary test against 8 fungi on Mycophile Agar at pH 5.0 (Table VI); format: cell-based; set-up: key: 1= no growth; 0= growth of the indicated fungi at dose indicated in ppm; conditions: for ANIG growth: Aspergillus niger; for APUL growth: Aureobasidium pullulans; for CGLO growth: Chaetomium globosum; for CRES growth: Cladosporium resinae; for GTRA growth: Gloeophyllum trabeum; for PFUN growth: Penicillium funiculosum; for RRUB growth: Rhodotorula rubra; for SSER growth: Sacharomyces cerevisiae
Description: The results of the minimum inhibitory concentration (MIC) tests of compounds of this invention are shown in Tables IIIa IIIb, IIIc, V, VI, VII, and VIII against the microorganisms shown in Table IX.

[1] = tested on: Aureobasidium pullulans (APUL); test: Minimum inhibitory concentration (MIC), broth two-fold serial dilution test; format: cell-based; conditions: Aureobasidium pullulans, IIIB, trypticase soy broth (complex media); Table IIIb; read-out: MIC (F) APUL
[2] = tested on: Staphylococcus aureus (SAUR); test: as above; conditions: Staphylococcus aureus, IIIB, read-out: MIC (G+) SAUR, trypticase soy broth (complex media); Table IIIb
[3] = tested on: Pseudomonas aerugenosa (PSAE); test: as above; conditions: Pseudomonas, IIIB, read-out: MIC (G-) PSAE, trypticase soy broth (complex media); Table IIIb
Aspergillus niger (ANIG) = test: as above; format: cell-based; conditions: Aspergillus niger, IIIB, trypticase soy broth (complex media); Table IIIb; read-out: MIC (F) ANIG
Escherichia coli (ECOL) = test: as above; conditions: Escherichia coli, IIIB, read-out: MIC (G-) ECOL, trypticase soy broth (complex media); Table IIIb
[4] = tested on: MIXED COOLING TOWER ALGAE; test: MIC test against mixed cooling tower algae; format: cell-based, green algae and blue-green bacteria; conditions: Table VIII
Protocol: The algae culture contains green algae and blue-green bacteria, and is obtained from a cooling tower in Spring House, Pennsylvania. The algae culture is grown in Allen's medium on a rotary shaker under flourescent room lighting. This culture is further diluted with Allen's medium and then added to the test vessel.

[5] = tested on: Pseudomonas fluorescens (PSFL); test: Minimum inhibitory concentration (MIC), broth two-fold serial dilution test; conditions: Pseudomonas fluorescens, IIIB, read-out: MIC (G-) PSFL, trypticase soy broth (complex media); Table IIIb
Description: When the test is ready to be done, each vessel in the dilution series, except the first vessel, contains an equal volume of compound free broth. The first vessel contains twice the volume of broth with the starting concentration of test compound. One half of the broth from the first vessel is transferred to the second vessel. After being mixed, one half the resulting volume is removed from the second vessel and transferred to the third vessel. The entire cycle is repeated sufficiently to give a series of concentrations amounting to 500, 250, 125, 63, 31, 16, 8, and 4 ppm (or 100, 50, 25, 12.5, 6.2, 3.1, 1.6, and 0.8), respectively.
Each vessel is then inoculated with a cell suspension of the appropriate test organism. Bacteria are grown in broth, fungi on agar slants for a time and at a temperature appropriate to the species being tested, and algae are a mixture of green algae and blue-green bacteria grown in a nutrient media. At the end of the growth period, in the case of bacteria, the broth is vortexed to disperse the cells.
The vessels are then incubated at the appropriate temperature. After the incubation, the vessels are examined for growth/no growth.

THREE FUNGI = test: MIC test against three fungi in Mycophile Broth, pH 5.0, read after 8 days (Table VII); format: cell-based; conditions: 192 h, serial dilutions from 50 ppm, read after 8 days of incubation
[6] = Aspergillus niger, read-out: MIC ANIG
[7] = Aureobasidium pullulans, read-out: MIC APUL
[8] = Gloeophyllum trabeum, read-out: MIC GTRA

Compound O=CNCC(=O)OCC#CI [Compound 32, N-formylglycine iodopropargyl ester] has an ANIG growth (8 FUNGI; 0.2 PPM) of 0, an ANIG growth (8 FUNGI; 1.0 PPM) of 0 and an ANIG growth (8 FUNGI; 2.5 PPM) of 0. The ANIG growth (8 FUNGI; 25 PPM) was 1, the APUL growth (8 FUNGI; 0.2 PPM) was 0 and the APUL growth (8 FUNGI; 1.0 PPM) was 0. It also gave an APUL growth (8 FUNGI; 2.5 PPM) of 0, an APUL growth (8 FUNGI; 25 PPM) of 1 and a CGLO growth (8 FUNGI; 0.2 PPM) of 0. The CGLO growth (8 FUNGI; 1.0 PPM) was 0, the CGLO growth (8 FUNGI; 2.5 PPM) was 0 and the CGLO growth (8 FUNGI; 25 PPM) was 1. The CRES growth (8 FUNGI; 0.2 PPM) was 0, the CRES growth (8 FUNGI; 1.0 PPM) was 0 and the CRES growth (8 FUNGI; 2.5 PPM) was 0. It also gave a CRES growth (8 FUNGI; 25 PPM) of 1, a GTRA growth (8 FUNGI; 0.2 PPM) of 0 and a GTRA growth (8 FUNGI; 1.0 PPM) of 0. For the same compound, the GTRA growth (8 FUNGI; 2.5 PPM) was 0, the GTRA growth (8 FUNGI; 25 PPM) was 1 and the PFUN growth (8 FUNGI; 0.2 PPM) was 0. For the same compound, the PFUN growth (8 FUNGI; 1.0 PPM) was 0, the PFUN growth (8 FUNGI; 2.5 PPM) was 0 and the PFUN growth (8 FUNGI; 25 PPM) was 1. The RRUB growth (8 FUNGI; 0.2 PPM) was 0, the RRUB growth (8 FUNGI; 1.0 PPM) was 0 and the RRUB growth (8 FUNGI; 2.5 PPM) was 0. For the same compound, the RRUB growth (8 FUNGI; 25 PPM) was 1, the SSER growth (8 FUNGI; 0.2 PPM) was 0 and the SSER growth (8 FUNGI; 1.0 PPM) was 0. The SSER growth (8 FUNGI; 2.5 PPM) was 0, the SSER growth (8 FUNGI; 25 PPM) was 1 and the MIC [1] was 8 µg/mL (≈ 30 µM). For the same compound, the MIC [2] was 63 µg/mL (≈ 236 µM), the MIC [3] was 63 µg/mL (≈ 236 µM) and the MIC (Aspergillus niger (ANIG)) was 2 µg/mL (≈ 7.49 µM). The MIC (Escherichia coli (ECOL)) was 63 µg/mL (≈ 236 µM), the MIC [4] was 6.2 µg/mL (≈ 23.2 µM) and the MIC [5] was 32 µg/mL (≈ 120 µM). For the same compound, the MIC (THREE FUNGI; [6]) was 12.5 µg/mL (≈ 46.8 µM), the MIC (THREE FUNGI; [7]) was 25 µg/mL (≈ 93.6 µM) and the MIC (THREE FUNGI; [8]) was 3.2 µg/mL (≈ 12 µM).
CCCCCCCC(=O)NCC(=O)OCC#CI [Compound 34, N-octanoylglycine iodopropargyl ester] gave an ANIG growth (8 FUNGI; 0.2 PPM) of 0, an ANIG growth (8 FUNGI; 1.0 PPM) of 1 and an ANIG growth (8 FUNGI; 2.5 PPM) of 1. The ANIG growth (8 FUNGI; 25 PPM) was 1, the APUL growth (8 FUNGI; 0.2 PPM) was 0 and the APUL growth (8 FUNGI; 1.0 PPM) was 0. It also gave an APUL growth (8 FUNGI; 2.5 PPM) of 0, an APUL growth (8 FUNGI; 25 PPM) of 1 and a CGLO growth (8 FUNGI; 0.2 PPM) of 0. For the same compound, the CGLO growth (8 FUNGI; 1.0 PPM) was 1, the CGLO growth (8 FUNGI; 2.5 PPM) was 0 and the CGLO growth (8 FUNGI; 25 PPM) was 1. It also gave a CRES growth (8 FUNGI; 0.2 PPM) of 0, a CRES growth (8 FUNGI; 1.0 PPM) of 0 and a CRES growth (8 FUNGI; 2.5 PPM) of 0. It also gave a CRES growth (8 FUNGI; 25 PPM) of 1, a GTRA growth (8 FUNGI; 0.2 PPM) of 0 and a GTRA growth (8 FUNGI; 1.0 PPM) of 1. For the same compound, the GTRA growth (8 FUNGI; 2.5 PPM) was 1, the GTRA growth (8 FUNGI; 25 PPM) was 1 and the PFUN growth (8 FUNGI; 0.2 PPM) was 0. It also gave a PFUN growth (8 FUNGI; 1.0 PPM) of 0, a PFUN growth (8 FUNGI; 2.5 PPM) of 1 and a PFUN growth (8 FUNGI; 25 PPM) of 1. The RRUB growth (8 FUNGI; 0.2 PPM) was 0, the RRUB growth (8 FUNGI; 1.0 PPM) was 0 and the RRUB growth (8 FUNGI; 2.5 PPM) was 0. It also gave an RRUB growth (8 FUNGI; 25 PPM) of 1, an SSER growth (8 FUNGI; 0.2 PPM) of 0 and an SSER growth (8 FUNGI; 1.0 PPM) of 0. It also gave an SSER growth (8 FUNGI; 2.5 PPM) of 0, an SSER growth (8 FUNGI; 25 PPM) of 1 and an MIC [1] of 8 µg/mL (≈ 21.9 µM). The MIC [2] was 250 µg/mL (≈ 685 µM), the MIC [3] was 125 µg/mL (≈ 342 µM) and the MIC (Aspergillus niger (ANIG)) was < 0.12 µg/mL. For the same compound, the MIC (Escherichia coli (ECOL)) was > 250 µg/mL, the MIC [4] was 12.5 µg/mL (≈ 34.2 µM) and the MIC [5] was 63 µg/mL (≈ 173 µM). For the same compound, the MIC (THREE FUNGI; [6]) was 1.6 µg/mL (≈ 4.38 µM), the MIC (THREE FUNGI; [7]) was 12.5 µg/mL (≈ 34.2 µM) and the MIC (THREE FUNGI; [8]) was 3.2 µg/mL (≈ 8.76 µM).
With C/C=C/C=C/C(=O)NCC(=O)OCC#CI [Compound 35, N-sorbylglycine iodopropargyl ester] the ANIG growth (8 FUNGI; 0.2 PPM) was 0, the ANIG growth (8 FUNGI; 1.0 PPM) was 1 and the ANIG growth (8 FUNGI; 2.5 PPM) was 1. The ANIG growth (8 FUNGI; 25 PPM) was 1, the APUL growth (8 FUNGI; 0.2 PPM) was 0 and the APUL growth (8 FUNGI; 1.0 PPM) was 0. The APUL growth (8 FUNGI; 2.5 PPM) was 0, the APUL growth (8 FUNGI; 25 PPM) was 1 and the CGLO growth (8 FUNGI; 0.2 PPM) was 0. For the same compound, the CGLO growth (8 FUNGI; 1.0 PPM) was 1, the CGLO growth (8 FUNGI; 2.5 PPM) was 1 and the CGLO growth (8 FUNGI; 25 PPM) was 1. For the same compound, the CRES growth (8 FUNGI; 0.2 PPM) was 0, the CRES growth (8 FUNGI; 1.0 PPM) was 0 and the CRES growth (8 FUNGI; 2.5 PPM) was 0. For the same compound, the CRES growth (8 FUNGI; 25 PPM) was 1, the GTRA growth (8 FUNGI; 0.2 PPM) was 0 and the GTRA growth (8 FUNGI; 1.0 PPM) was 1. It also gave a GTRA growth (8 FUNGI; 2.5 PPM) of 1, a GTRA growth (8 FUNGI; 25 PPM) of 1 and a PFUN growth (8 FUNGI; 0.2 PPM) of 0. It also gave a PFUN growth (8 FUNGI; 1.0 PPM) of 0, a PFUN growth (8 FUNGI; 2.5 PPM) of 1 and a PFUN growth (8 FUNGI; 25 PPM) of 1. For the same compound, the RRUB growth (8 FUNGI; 0.2 PPM) was 0, the RRUB growth (8 FUNGI; 1.0 PPM) was 0 and the RRUB growth (8 FUNGI; 2.5 PPM) was 1. For the same compound, the RRUB growth (8 FUNGI; 25 PPM) was 1, the SSER growth (8 FUNGI; 0.2 PPM) was 0 and the SSER growth (8 FUNGI; 1.0 PPM) was 0. The SSER growth (8 FUNGI; 2.5 PPM) was 0, the SSER growth (8 FUNGI; 25 PPM) was 1 and the MIC [1] was 4 µg/mL (≈ 12 µM). It also gave an MIC [2] of 63 µg/mL (≈ 189 µM), an MIC [3] of 125 µg/mL (≈ 375 µM) and an MIC (Aspergillus niger (ANIG)) of 2 µg/mL (≈ 6 µM). The MIC (Escherichia coli (ECOL)) was 125 µg/mL (≈ 375 µM), the MIC [4] was 6.2 µg/mL (≈ 18.6 µM) and the MIC [5] was 63 µg/mL (≈ 189 µM). For the same compound, the MIC (THREE FUNGI; [6]) was 1.6 µg/mL (≈ 4.8 µM), the MIC (THREE FUNGI; [7]) was 6.2 µg/mL (≈ 18.6 µM) and the MIC (THREE FUNGI; [8]) was 0.4 µg/mL (≈ 1.2 µM).
